Literature values as cited in US20140328949A1, “ELECTROCHEMICALLY GENERATED ANTIMICROBIAL SODIUM HYDROXIDE SOLUTION” (priority 2013, published 2014).

System: hairy foot warts
Conditions: for efficacy of footbath treatment against hairy foot warts: footbaths, formalin 5%, zinc sulfate 3× footbaths, spread and mild lesions

Compound | efficacy of footbath treatment against hairy foot warts | efficacy against more serious hairy foot wart lesions (3× footbaths, 1990 study)
O=S(=O)([O-])[O-].[Cu+2] [copper sulfate, Copper sulfate] | not an effective treatment | –
O=S(=O)([O-])[O-].[Zn+2] [Zinc sulfate] | effective at controlling the spread of hairy foot warts and treating mild lesions | ineffective
C=O [formalin] | effective in controlling hairy foot wart outbreaks | –
